2 molecules from patent US20250019652A1, “PRODUCTION METHOD FOR SHEET-LIKE RETINAL TISSUE” (RIKEN, priority 2021, published 2025) can be followed below.

Common to all, as to type: cell-based, human
Assay [1] concerns single cell suspension of dispersed retinal cells (KhES-1-derived). Put plainly: Layer structure formation-promoting factor: reformed aggregates, immunostained sections (Example 3). The following applies: 3 μM CHIR99021. The procedure:
The aggregates of Day 26 from initiation of the suspension culture prepared as in Example 1 were washed with PBS, and a neuronal cell dispersion solution (manufactured by FUJIFILM Wako Pure Chemical Corp.) was added. After incubation at 37° C., they were dispersed into single cells by pipetting. These cells were suspended in 100 μL of a serum-free medium so as to become 3.0×10^4 cells per well of a non-cell adhesive 96-well culture plate (trade name: PrimeSurface 96-well V-bottom plate, manufactured by Sumitomo Bakelite Co., Ltd.), and suspension-cultured at 37° C. and 5% CO2.
The aggregates of Day 15 (corresponding to Differentiation Day 41) and Day 28 (corresponding to Differentiation Day 54) after suspension culture for aggregate reforming were fixed in 4% PFA, and frozen sections were prepared. These frozen sections were subjected to immunostaining using DAPI and anti-Chx10 antibody (trade name: Anti CHX10 Antibody, Exalpha Biologicals Inc.), anti-β-catenin antibody (R&D Systems, Inc.), anti-collagen IV antibody (Abcam plc), anti-Zo-1 antibody (Invitrogen Corp.), anti-Ki67 antibody (Becton, Dickinson and Company), anti-Pax6 antibody (BioLegend, Inc.), anti-RxR-γ (RxRg) antibody (Spring Bioscience Corp.), anti-CRX antibody (Abnova Corp.), anti-NRL antibody (R&D Systems, Inc.), anti-recoverin antibody (manufactured by Proteintech Group, Inc.), anti-Islet-1 antibody (Developmental Studies Hybridoma Bank (DSHB)), anti-GS antibody (Sigma-Aldrich Co., LLC), anti-Brn3 antibody (Santa Cruz Biotechnology), and anti-calretinin antibody (R&D Systems, Inc.).
These immunostained sections were observed under a bright field microscope and a fluorescence microscope (BZ-X810 manufactured by Keyence Corp.) and a confocal laser scanning fluorescence microscope (SP-8 manufactured by Leica), and the results are shown in FIGS. 11 to 20. […] From FIGS. 19 and 20, it was confirmed that RxR-Y(RxRg)-positive and CRX-positive cone progenitor cells and recoverin-positive and CRX-positive photoreceptor progenitor cells were differentiated, and the differentiation of Islet-1-positive and Brn3-positive retinal ganglion cells and calretinin-positive amacrine cells was also confirmed.

For assay [2], the system named is single cells dispersed from KhES-1- and 1231A3-derived aggregates. As to the kind of experiment: Aggregate proliferation-promoting factor: aggregate area in suspension culture with Y-27632 (Example 2). The following applies: SAG 300 nM or CHIR99021 3 μM in addition to 10 μM Y-27632; Day 1, 7, 14. The procedure: The aggregates of Day 20 (1231A3) and Day 27 (KhES-1) from initiation of the suspension culture prepared as in Example 1 were washed with PBS, and a neuronal cell dispersion solution (manufactured by FUJIFILM Wako Pure Chemical Corp.) was added. After incubation at 37° C., they were dispersed into single cells by pipetting. These cells were suspended in 100 μL of a serum-free medium containing 10 μM Y-27632 (FUJIFILM Wako Pure Chemical Corp.) so as to become 2 to 5×10^5 cells per well of a non-cell adhesive 96-well culture plate (trade name: PrimeSurface 96-well V-bottom plate, manufactured by Sumitomo Bakelite Co., Ltd.), and suspension-cultured at 37° C. and 5% CO2. […] The reformed states of the aggregates were observed under a bright field microscope and a fluorescence microscope (BZ-X810 manufactured by Keyence Corp.) on Day 1, Day 7, and Day 14 after suspension culture for aggregate reforming. The areas of the aggregates were measured in Image J. The results of the KhES-1-derived cells are shown in FIG. 6 (an average value from 12 […] measured). The results of the 1231A3-derived cells in which the reformed states of the aggregates of Day 1 after suspension culture were observed are shown in FIG. 7.

In assay [3] the test system is retinal cells (NR) dispersed into single cells (KhES-1-derived). Put plainly: Seeding onto Transwell: confirmation of effect of CHIR99021 (Example 9). The following applies: CHIR99021 5 μM or 3 μM with Y-27632 (and SAG); Day 14. On the procedure: The aggregates of Days 15 to 30 from initiation of the suspension culture prepared as in Example 1 were washed with PBS, and a neuronal cell dispersion solution (manufactured by FUJIFILM Wako Pure Chemical Corp.) was added. After incubation at 37° C., they were dispersed into single cells by pipetting.
When cell sheets obtained on Culture Day 14 for aggregate reforming were observed, it was confirmed that the cells were engrafted under all the conditions (FIG. 29). Accordingly, these cell sheets were fixed in 4% PFA, and frozen sections were prepared. These frozen sections were subjected to immunostaining using DAPI and anti-Zo-1 antibody (trade name: Anti Zo-1 Antibody, manufactured by Invitrogen Corp.) and anti-collagen IV antibody (Abcam plc). These immunostained sections were observed under a confocal laser scanning fluorescence microscope.

The test system of assay [4] is retinal cells (NR) dispersed into single cells (KhES-1-derived, dd33). Put plainly: Seeding onto Transwell: concentration and addition period of CHIR99021 (Example 10). The following applies: 1 μM to 9 μM CHIR99021 for 3 days to 9 days. The procedure: The aggregates of 33 days (dd33) after the start of the suspension culture prepared as in Example 1 were washed with PBS, and a neuronal cell dispersion solution (manufactured by FUJIFILM Wako Pure Chemical Corp.) was added. After incubation at 37° C., they were dispersed into single cells by pipetting. […] 3 days or later from seeding, the medium was replaced once every 3 to 4 days.
Accordingly, these cell sheets were fixed in 4% PFA, and frozen sections were prepared. These frozen sections were subjected to immunostaining using DAPI.

For assay [5], the system named is retinal progenitor cells dispersed into single cells (KhES-1- and 1231A3-derived aggregates). As to the kind of experiment: Search of aggregate reforming factor: suspension culture of dispersed retinal cells (Example 1). The following applies: added at cell seeding; Y-27632 10 μM or 20 μM; Day 1 to Day 2 of suspension culture. On the procedure:
Human ES cells (KhES-1 strain (Non Patent Literature 3)) and human iPS cells (1231A3 strain, Kyoto University) genetically engineered so as to have Rx::Venus reporter gene were cultured under feeder-free conditions in accordance with the method described in “Scientific Reports, 4, 3594 (2014)”. As a feeder-free medium, StemFit medium (trade name: AK03N, manufactured by Ajinomoto Co., Inc.) was used, and as a scaffold as an alternative to feeder cells, Laminin511-E8 (trade name, manufactured by Nippi, Inc.) was used.
Specific operation of maintenance culture for human ES and human iPS cells (human ES/iPS cells) was performed as follows: First, human ES/iPS cells that reached sub-confluency (state where about 60% of the culture area was covered by cells) were washed with PBS and separated into single cells by use of TrypLE Select (trade name, manufactured by Life Technologies). In this context, the dispersion into single cells refers to performing dispersion so as to become single cells, and a cell population dispersed into single cells is capable of containing a mass of 2 to 50 cells, in addition to single cells. Then, the separated human ES single cells were seeded in plastic culture dishes coated with Laminin 511-E8 and cultured under feeder-free conditions in StemFit medium in the presence of Y-27632 (ROCK inhibitor, 10 μM). […]

As for `Cc1c[nH]c(-c2cnc(NCCNc3ccc(C#N)cn3)nc2-c2ccc(Cl)cc2Cl)n1` [CHIR99021], the reforming of aggregates result in assay [1] (Day 1, Day 14, Day 28) is given as “aggregates were reformed”. In assay [1] (Day 15 and Day 28 sections), the “apical-basal polarity (Zo-1, collagen IV)” value is “epithelial tissue having apical and basal polarities was formed”; the “layer structure formation (Rx::Venus, Chx10)” value was “a layer structure where Rx::Venus-positive and Chx10-positive neural retinal progenitor cells were contained was formed”. Further, in assay [2], the “size of reformed aggregates versus only Y-27632” value is “larger aggregates were reformed”. The “apical and basal polarity of sheet” value in assay [3] was “sheets of Rx::Venus-positive retinal progenitor cells having apical and basal polarities were formed again”. In assay [4], the “reforming of thick sheets” value is “thick sheets of Rx::Venus-positive retinal progenitor cells were reformed”.
As to `C[C@@H](N)[C@H]1CC[C@H](C(=O)Nc2ccncc2)CC1` [Y-27632], the early aggregate reforming entry in assay [5] is “aggregates were reformed from Day 1 to Day 2”.
